Consider six molecules from patent publication US4681755A, “Delivery device for zero-order release of an active principle into a dissolution fluid and process for its preparation” (Sigma-Tau Industrie Farmaceutiche Riunite S.p.A., priority 1984, dated 1987).

Read-outs that look alike come from different tables or passages of the source.

Data set [1] in a line: In vitro release, USP XXI "paddle" apparatus, distilled water at 37° C. It is filed as physicochemical. How it is done:
"In vitro" experiments were carried out both on (i) the uncoated solid matrix-type reservoirs, and (ii) the finished devices; i.e., on the reservoirs coated both with the release rate-controlling membrane and with the protective membrane loaded with a portion of the active principle which is desired to be immediately available.
To carry out such experiments, a USP XXI "paddle" apparatus was used with distilled water at 37° C. as the dissolution medium.

Data set [2] can be described thus: In vitro model, diltiazem release (Example 7; apparatus not restated). It is filed as physicochemical.
For data set [3] the following is noted: Ex. 1 device, healthy volunteer.
Procedure: A healthy volunteer was administered the same device. The following plasma levels of active principle were detected.
The nature of data set [4]: In vitro release, USP XXI "paddle" apparatus, distilled water at 37° C. It is filed as physicochemical. The following applies: Ex. 2, coated reservoir, no drug in protective membrane.
Setting [5] is: Ex. 1, coated reservoir, drug-loaded protective membrane, 1 h.
Where [6] appears, read: Ex. 1, coated reservoir, drug-loaded protective membrane, 2 h.
Where [7] appears, read: Ex. 1, coated reservoir, drug-loaded protective membrane, 3 h.
Setting [8] is: Ex. 1, coated reservoir, drug-loaded protective membrane, 4 h.
The mark [9] stands for this setting: Ex. 1, coated reservoir, drug-loaded protective membrane, 5 h.
[10] abbreviates: Ex. 1, coated reservoir, drug-loaded protective membrane, 6 h.
[11] abbreviates: Ex. 1, uncoated solid matrix-type reservoir (100 mg), 30 min.
The mark [12] stands for this setting: Ex. 1, uncoated solid matrix-type reservoir (100 mg), 60 min.
Setting [13] is: Ex. 1, uncoated solid matrix-type reservoir (100 mg), 90 min.
[14] abbreviates: Ex. 1, uncoated solid matrix-type reservoir (100 mg), 120 min.

As to `CC(=O)O[C@H](CC(=O)[O-])C[N+](C)(C)C` [Acetyl L-carnitine, acetyl L-carnitine], the Total drug released in data set [1] (Ex. 3, coated reservoir, no drug in protective membrane, 1 h) worked out at 60 mg; in data set [1] (Ex. 3, coated reservoir, no drug in protective membrane, 2 h) it was 135 mg; in data set [1] (Ex. 3, coated reservoir, no drug in protective membrane, 3 h) it was 210 mg; in data set [1] (Ex. 3, coated reservoir, no drug in protective membrane, 4 h) it was 280 mg; in data set [1] (Ex. 3, coated reservoir, no drug in protective membrane, 5 h), 348 mg; in data set [1] (Ex. 3, coated reservoir, no drug in protective membrane, 6 h) it was 411 mg. Further, the Total drug released in data set [1] (Ex. 3, uncoated solid matrix-type reservoir (500 mg), 30 min) is reported as 158 mg; in data set [1] (Ex. 3, uncoated solid matrix-type reservoir (500 mg), 60 min), 242 mg; in data set [1] (Ex. 3, uncoated solid matrix-type reservoir (500 mg), 90 min) it was 335 mg; in data set [1] (Ex. 3, uncoated solid matrix-type reservoir (500 mg), 120 min) it was 395 mg.
Turning to `COc1ccc2c(C(=O)c3ccc(Cl)cc3)c(C)n(CC(=O)O)c2c1.NCCCCC(N)C(=O)O` [Clometacin lysinate, clometacin lysinate], the Total drug released in data set [1] (Ex. 4, coated reservoir, drug-loaded protective membrane, 1 h) is reported as 15 mg; in data set [1] (Ex. 4, coated reservoir, drug-loaded protective membrane, 2 h), 40 mg; in data set [1] (Ex. 4, coated reservoir, drug-loaded protective membrane, 3 h) it was 61 mg; in data set [1] (Ex. 4, coated reservoir, drug-loaded protective membrane, 4 h), 78 mg; in data set [1] (Ex. 4, coated reservoir, drug-loaded protective membrane, 5 h), 95 mg; in data set [1] (Ex. 4, coated reservoir, drug-loaded protective membrane, 6 h) it was 116 mg. For the same molecule, the Total drug released is reported as 63 mg in data set [1] (Ex. 4, uncoated solid matrix-type reservoir (150 mg), 30 min); 91 mg in data set [1] (Ex. 4, uncoated solid matrix-type reservoir (150 mg), 60 min); 105 mg in data set [1] (Ex. 4, uncoated solid matrix-type reservoir (150 mg), 90 min); 124 mg in data set [1] (Ex. 4, uncoated solid matrix-type reservoir (150 mg), 120 min).
`COc1ccc([C@@H]2Sc3ccccc3N(CCN(C)C)C(=O)[C@@H]2OC(C)=O)cc1.Cl` [Diltiazem, diltiazem HCl]: the Total drug released was 14.4 mg in data set [2] (Ex. 7, coated reservoir, no drug in protective membrane, 0.5 h); 29.5 mg in data set [2] (Ex. 7, coated reservoir, no drug in protective membrane, 1 h); 67.6 mg in data set [2] (Ex. 7, coated reservoir, no drug in protective membrane, 2 h); 89.9 mg in data set [2] (Ex. 7, coated reservoir, no drug in protective membrane, 3 h); 102.3 mg in data set [2] (Ex. 7, coated reservoir, no drug in protective membrane, 4 h); 40.0 mg in data set [2] (Ex. 7, uncoated solid matrix-type reservoir (120 mg), 15 min). Besides, the Total drug released in data set [2] (Ex. 7, uncoated solid matrix-type reservoir (120 mg), 30 min) is recorded as 57.6 mg; in data set [2] (Ex. 7, uncoated solid matrix-type reservoir (120 mg), 45 min), 69.6 mg; in data set [2] (Ex. 7, uncoated solid matrix-type reservoir (120 mg), 60 min), 80.4 mg; in data set [2] (Ex. 7, uncoated solid matrix-type reservoir (120 mg), 75 min), 85.2 mg.
Consider `COc1ccc2c(c1)c(CC(=O)O)c(C)n2C(=O)c1ccc(Cl)cc1.NCCCC[C@H](N)C(=O)O` [Indomethacin lysinate, Lysine salt of indomethacin], for which the “Plasma level of active principle” value was 1600 ng/mL in data set [3] (1 h); 2500 ng/mL in data set [3] (2 h); 3200 ng/mL in data set [3] (5 h); 1500 ng/mL in data set [3] (8 h); 1100 ng/mL in data set [3] (12 h); 800 ng/mL in data set [3] (24 h). In addition, the “Release rate in vitro” value in data set [1] (Ex. 1, after release rate-controlling membrane is applied) was “substantially constant through the sixth hour”. Also, the Rate in data set [1] (setting [5]) was 14 mg/h; in data set [1] (setting [6]) it was 12.5 mg/h; in data set [1] (setting [7]), 13.3 mg/h; in data set [1] (setting [8]), 14.25 mg/h; in data set [1] (setting [9]) it was 15.4 mg/h; in data set [1] (setting [10]) it was 15.5 mg/h. The Rate in data set [1] (setting [11]) was determined as 40 mg/h; in data set [1] (setting [12]) it was 54 mg/h; in data set [1] (setting [13]), 43 mg/h; in data set [1] (setting [14]), 37.5 mg/h. Also, the Total drug released in data set [1] (setting [5]) was 14 mg; in data set [1] (setting [6]) it was 25 mg; in data set [1] (setting [7]) it was 40 mg; in data set [1] (setting [8]) it was 57 mg; in data set [1] (setting [9]) it was 77 mg; in data set [1] (setting [10]), 93 mg. Further, the Total drug released is recorded as 20 mg in data set [1] (setting [11]), 54 mg in data set [1] (setting [12]), 65 mg in data set [1] (setting [13]) and 75 mg in data set [1] (setting [14]). Further, in data set [1] (Ex. 1, uncoated solid matrix-type reservoir), the “Time in which drug is wholly released” value is “about 5 hours”.
As to `CCC(COC(=O)c1cc(OC)c(OC)c(OC)c1)(c1ccccc1)N(C)C` (stereo not shown) [Trimebutine, trimebutine], the Total drug released in data set [1] (Ex. 5, coated reservoir, drug-loaded protective membrane, 1 h) turned out to be 18 mg; in data set [1] (Ex. 5, coated reservoir, drug-loaded protective membrane, 2 h), 30 mg; in data set [1] (Ex. 5, coated reservoir, drug-loaded protective membrane, 3 h), 50 mg; in data set [1] (Ex. 5, coated reservoir, drug-loaded protective membrane, 4 h), 67 mg; in data set [1] (Ex. 5, coated reservoir, drug-loaded protective membrane, 5 h), 90 mg; in data set [1] (Ex. 5, coated reservoir, drug-loaded protective membrane, 6 h), 103 mg. For the same molecule, the Total drug released in data set [1] (Ex. 5, uncoated solid matrix-type reservoir (140 mg), 30 min) is 20 mg; in data set [1] (Ex. 5, uncoated solid matrix-type reservoir (140 mg), 60 min), 64 mg; in data set [1] (Ex. 5, uncoated solid matrix-type reservoir (140 mg), 90 min), 80 mg; in data set [1] (Ex. 5, uncoated solid matrix-type reservoir (140 mg), 120 min), 105 mg; in data set [1] (Ex. 6, coated reservoir, protective membrane loaded with 15 mg drug, 0.5 h), 22.5 mg; in data set [1] (Ex. 6, coated reservoir, protective membrane loaded with 15 mg drug, 1 h) it was 45.0 mg. The Total drug released in data set [1] (Ex. 6, coated reservoir, protective membrane loaded with 15 mg drug, 2 h) stood at 82.5 mg; in data set [1] (Ex. 6, coated reservoir, protective membrane loaded with 15 mg drug, 3 h), 105.0 mg; in data set [1] (Ex. 6, coated reservoir, protective membrane loaded with 15 mg drug, 4 h), 120.0 mg; in data set [1] (Ex. 6, coated reservoir, protective membrane loaded with 15 mg drug, 5 h), 127.5 mg; in data set [1] (Ex. 6, uncoated solid matrix-type reservoir (135 mg), 20 min), 47 mg; in data set [1] (Ex. 6, uncoated solid matrix-type reservoir (135 mg), 40 min), 64.8 mg. In addition, the Total drug released in data set [1] (Ex. 6, uncoated solid matrix-type reservoir (135 mg), 60 min) came out at 77.0 mg; in data set [1] (Ex. 6, uncoated solid matrix-type reservoir (135 mg), 80 min) it was 87.8 mg; in data set [1] (Ex. 6, uncoated solid matrix-type reservoir (135 mg), 100 min) it was 94.5 mg; in data set [1] (Ex. 6, uncoated solid matrix-type reservoir (135 mg), 180 min), 115 mg.
Turning to methisoprinol, the Total drug released in data set [4] (1 h) is 53 mg; in data set [4] (5 h), 273 mg; in data set [1] (Ex. 2, coated reservoir, no drug in protective membrane, 2 h), 115 mg; in data set [1] (Ex. 2, coated reservoir, no drug in protective membrane, 3 h), 173 mg; in data set [1] (Ex. 2, coated reservoir, no drug in protective membrane, 4 h) it was 223 mg; in data set [1] (Ex. 2, coated reservoir, no drug in protective membrane, 6 h), 315 mg. Besides, the Total drug released in data set [1] (Ex. 2, coated reservoir, no drug in protective membrane, 7 h) is reported as 357 mg; in data set [1] (Ex. 2, uncoated solid matrix-type reservoir (500 mg), 30 min), 225 mg; in data set [1] (Ex. 2, uncoated solid matrix-type reservoir (500 mg), 60 min) it was 312 mg; in data set [1] (Ex. 2, uncoated solid matrix-type reservoir (500 mg), 90 min) it was 365 mg; in data set [1] (Ex. 2, uncoated solid matrix-type reservoir (500 mg), 120 min) it was 405 mg.
